Laboratory results as given in patent US9273018B2, “Piperazine derivatives” (St. Mary's University, priority 2011, dated 2016).

Experiments:
Type in all cases: cell-based
HT29 colon cancer cells = assay: Cytotoxicity of HT29 colon cancer cells (relative cell density); conditions: Homo sapiens, HT-29, relative cell density as percent of control, FIG. 3, read-out: LD50 (the source's name)
A549 lung cancer cells = assay: Cytotoxicity of A549 lung cancer cells (relative cell density); conditions: relative cell density as percent of control, FIG. 2
Procedure: A549 lung cancer cells were cultured according to established protocols (Lieber M. et al., Int. J. Cancer 17: 62-70, 1976). Temozolomide and dacarbazine were separately added to the cell culture media at increasing doses and the relative cell density, as a percent of control cells not exposed to temozolomide or dacarbazine, was calculated.
To test the cytotoxic effect of 1-[(E)-2-(4-nitrophenyl)diazen-1-yl]-4-phenylpiperazine, methyl 4-[(E)-2-(4-phenylpiperazin-1-yl)diazen-1-yl]benzoate, 1-{4[(E)-2-[4-(3,4-dichlorophenyl)piperazin-1-yl]phenyl}ethan-1-one, 1-{4-[(E)-2-[4-pyridin-2-yl)piperazin-1-yl]diazen-1-yl]phenyl}ethan-1-one, serial dilutions of the compounds were made and added to the cell culture media containing the A549 lung cancer cells. The relative cell density, as a percent of control cells not exposed to temozolomide, dacarbazine or the experimental compounds, was calculated.

[1] = tested on: U87MG glioblastoma cancer cells; assay: Cytotoxicity of glioblastoma cancer cells (relative cell density); conditions: Homo sapiens, U-87 MG, relative cell density as percent of control, FIG. 1, read-out: LD50 (the source's name)
Procedure: U87MG glioblastoma cancer cells were cultured according to established protocols (Martinkova et al., Cytotoxicity of and DNA adduct formation by ellipicine in human U87MG glioblastoma cancer cells. Neuro Endocrinol Lett 30 (Suppl 1):60-6, 2009). Temozolomide was added to the cell culture media at increasing doses and the relative cell density, as a percent of control cells not exposed to temozolomide, was calculated. Temozolomide is one of the primary treatments for glioblastoma type cancers and dacarbazine is an antineoplastic chemotherapy used in the treatment of various cells.
To test the cytotoxic effect of 1-[(E)-2-(4-nitrophenyl)diazen-1-yl]-4-phenylpiperazine, 4-[(E)-2-(4-phenylpiperazin-1-yl)diazen-1-yl]benzonitrile, methyl 4-[(E)-2-(4-phenylpiperazin-1-yl)diazen-1-yl]benzoate, methyl 4-[(E)-2-[4-(4-chlorophenyl)piperazin-1-yl)diazen-1-yl]benzoate, 1-[(E)-2-(4-bromophenyl)diazen-1-yl]-4-[(3-methylphenyl)methyl]piperazine, 4-[(E)-2-{4-[(3-methylphenyl)methyl]piperazin-1-yl}diazen-1-yl]benzonitrile serial dilutions of the compounds were made and added to the cell culture media containing the U87MG glioblastoma cancer cells. The relative cell density, as a percent of control cells not exposed to temozolomide, dacarbazine or the experimental compounds, was calculated.

Structure (SMILES) | IC50 (HT29 colon cancer cells) [µM] | LD50 (A549 lung cancer cells) [µM] | IC50 [1] [µM]
CC(=O)c1ccc(/N=N/N2CCN(c3ccc(Cl)c(Cl)c3)CC2)cc1 [Compound 22] | 3.4 | 3.4 | –
Cc1ccc(/N=N/N2CCN(c3ccccc3)CC2)cc1 [Compound 7, 1-[(E)-2-(4-methylphenyl)diazen-1-yl]-4-phenylpiperazine] | 9.6 | – | –
COC(=O)c1ccc(/N=N/N2CCN(c3ccccc3)CC2)cc1 [Compound 3, Methyl 4-[(E)-2-(4-phenylpiperazin-1-yl)diazen-1-yl]benzoate] | 3.9 | 25.5 | 16.2
N#Cc1ccccc1N1CCN(/N=N/c2ccc(Br)cc2)CC1 [Compound 49, 2-{4-[(E)-2-(4-bromophenyl)diazen-1-yl]piperazin-1-yl}benzonitrile] | 5.2 | – | –
Cc1cccc(CN2CCN(/N=N/c3ccc(C#N)cc3)CC2)c1 [Compound 68, 4-[(E)-2-{4-[(3-methylphenyl)methyl]piperazin-1-yl}diazen-1-yl]benzonitrile] | 13.5 | – | 14
CC(=O)c1ccc(/N=N/N2CCN(c3ccccn3)CC2)cc1 [Compound 45] | 11.2 | 15.6 | –
COC(=O)c1ccc(/N=N/N2CCN(c3ccccn3)CC2)cc1 [Compound 42, methyl 4-[(E)-2-[4-(pyridin-2-yl)piperazin-1-yl]diazen-1-yl]benzoate] | 14.6 | – | –
O=[N+]([O-])c1ccc(/N=N/N2CCN(c3ccccc3)CC2)cc1 [Compound 1, 1-[(E)-2-(4-nitrophenyl)diazen-1-yl]-4-phenylpiperazine] | 2.5 | 5.27 | 4.36
Cc1cccc(CN2CCN(/N=N/c3ccc(Br)cc3)CC2)c1 [Compound 70, 1-[(E)-2-(4-bromophenyl)diazen-1-yl]-4-[(3-methylphenyl)methyl]piperazine] | 17.6 | – | 12.2
COC(=O)c1ccc(/N=N/N2CCN(c3ccc(Cl)cc3)CC2)cc1 [Compound 12, methyl 4-[(E)-2-[4-(4-chlorophenyl)piperazin-1-yl)diazen-1-yl]benzoate] | – | – | 22.2
Cn1nnc2c(C(N)=O)ncn2c1=O [Temozolomide, reference compound] | – | 60.4 | 25.5
CN(C)/N=N/c1[nH]cnc1C(N)=O [dacarbazine, reference compound] | 25.2 | 25.7 | 25
N#Cc1ccc(/N=N/N2CCN(c3ccccc3)CC2)cc1 [Compound 2, 4-[(E)-2-(4-phenylpiperazin-1-yl)diazen-1-yl]benzonitrile] | 2.6 | – | 12.4
